Data on 1 molecule can be found in patent publication US3937838A, “Orally active bronchospasmolytic compounds and their preparation” (priority 1966, dated 1976).

Data set [1] has as its system spirally cut trachea from the guinea pig. Description: Bronchospasmolytic effect in vitro (Example 5a), spirally cut trachea. The following applies: at ED50; pilocarpine contracted; racemic terbutaline. As to the method:
Pharmacol. Exp. Ther. 90 (1947) page 104] and later modified by Constantine [J. Pharm. Pharmacol. 17 (1965) page 384]. In this test, guinea pigs are stunned with a blow on the head and bled to death. The trachea is dissected out, cut spirally and mounted in an organ bath (25 ml) in Krebs solution continuously aerated with oxygen (95%) and carbon dioxide (5%). […] The tension of the preparation is measured and is usually about 2 gm. initially. Dose response curves for epinephrine and each of the test compounds are then evaluated on the same muscle preparation.

In data set [2] the test system is histamine induced bronchoconstriction. Description: Bronchospasmolytic effect in vivo, Konzett and Rossler (Example 5b). Further details: species or system guinea pig. The following applies: intravenous; histamine-induced bronchospasm; FIG. 1. The method, then: Orciprenaline and terbutaline were also tested in vivo according to the method described by Konzett and Rossler [Arch. Exp. Path. Pharmak. 195 (1940) page 71]. In the method of Konzett and Rossler, the animal is ventilated with a constant volume of air. When a certain pressure has been reached in the lung, the volume of air which is in excess of the pulmonary capacity will escape through the valve. This surplus of air is recorded. The testing compounds in the Konzett and Rossler method, bronchial contraction is provoked by administration of histamine. The histamine reduced the capacity of the airways, and the measured overflow increases. In order to see to what extent a test compound counteracts the histamine-induced bronchospasm, the animal is first given an injection of the test compound which is followed 3 minutes later by exposure to histamine.

In data set [3] the test system is right auricle from the guinea pig. Kind of data set: Dual preparation test in vitro, effect on auricle (Example 5c). Particulars: slow infusion, FIGS. 2-4. The source says: (§1) [This procedure is more fully described below in Example 5 (b)].
(§2) FIG. 2 illustrates the effect of epinephrine (EPE) and terbutaline on spirally cut trachea and right auricle from the guinea pig. Both preparations are dissected out from the same animal and run under identical experimental conditions;
(§3) Both preparations are dissected out from the same animal, and run under identical experimental conditions;
(§4) Both preparations are dissected out from the same animal and run under identical experimental conditions;
(§5) The relation between the heart stimulatory effect and bronchodilator effect was studied in vitro on auricle-trachea-preparation from the guinea pig in order to compare the effect on the heart and the effect on the bronchial muscle under identical experimental conditions. Both spontaneously bearing auricle and spirally-cut trachea were placed in the same bath in Krebs solution. Both preparations were taken from the same animal.
(§6) The compound to be tested was slowly infused into the bathing solution and the tension was measured for each of the auricle and trachael preparations.
(§7) In carrying out this dual preparation test, epinephrine was used as a reference. […] Infusion of epinephrine was made over a period of ten minutes. After washing and recovery, the test solution was infused in the same manner and the effect of the test compound was compared with the effect of epinephrine.
Referring more specifically to FIG. 2, the upper portion of each chart thereof represents the tension continuously recorded of the auricle preparation (shaded area 1 for the effect of epinephrine on the auricle, ref. no. 2 for the effect of terbutaline infused at a rate of 0.2 μg/min on the auricle, and ref. no. 3 for the effect of terbutaline infused at a rate of 0.375μg/min on the auricle).

In data set [4] the test system is spirally cut trachea from the guinea pig. Description: Dual preparation test in vitro, effect on trachea (Example 5c). Particulars: slow infusion; 0.375 μg/min where stated; FIGS. 2-4.
Text: as §1, §2, §3, §4, §5, §6, §7

Data set [5] concerns isolated rabbit heart. Kind of data set: Effect on isolated heart, Langendorff preparation (Example 5d). As to the method:
The effect of the compound of the present invention was also studied on isolated rabbit heart (Langendorff preparation) the method used as described by Anden et al. (Acta Pharmacol. et Toxicol., 21 (1964) page 247). In this procedure, the isolated heart is mounted in a Krebs solution and the test compound is injected into it. Measurements are continuously recorded of the rate and force of contraction.
The tests using epinephrine establish a standard of comparison to evaluate subsequent test compounds in the same preparation.

Data set [6] has as its system bronchial asthma. Description: Clinical study in asthmatic patients (Example 6). In kind it is in vivo, human. The method, then:
All the patients were hospitalized for severe bronchial asthma. Before the patients were selected for the trial, spirometry was performed before and after isoprenaline inhalations to make sure that their obstruction was at least partly reversible by bronchodilating drugs. The tests were performed when the patients were in a relatively steady state of moderate asthmatic discomfort. Every morning during the trial control measurements of forced expiratory volume in one second (FEV1.0) were made. These values had to be less than 70% of the predicted normal value taking in consideration sex, age and heights. All the patients were under treatment of different drugs for their asthma. Other bronchodilating drugs were withdrawn at least 6 hours before the start of the measurements. Most of the patients were treated with steroids, antibiotics and expectorants before the start of the trial. This regimen was continued unchanged during the trial period.
Twenty-four took part in the study, 10 male and 14 female. Average age was 51 years (range 15-71 years), mean body weight 64 kg (range 44-88 kg.) and height 166 cm (range 150-187 cm).
The trial was performed as a double blind study during three consecutive days with the patients serving as their own control. […] The order of treatment was randomized according to the principle of Latin squares.
Lung function tests were made immediately before the administration of the tablets and after 1, 2, 3, 5 and 7 hours. FEV1.0 was measured using a Vitalograph spirometer. The highest value of three measurements on each occasion was used in the calculations. All the patients had been trained to perform the tests the day before the start of the trial. After 3 and 7 hours, the patients were questioned for side effects. The same, specially trained, nurse assisted throughout the whole investigation.
The "Student's" t-test was used for statistical evaluation of the results. The degree of significance for the differences is given as almost significant (p<0.05^x) significant (p<0.01^xx) and highly significant (p<0.001^xxx).

The nature of data set [7]: Acute toxicity in mice (Example 9). The following applies: mouse, in vivo, mice (base).
The test system of data set [8] is asthmatic patients. Description: Clinical trials, arterial oxygen tension in asthmatic patients. In kind it is in vivo, human. Particulars: a number of clinical trials. The source says:
Because stimulation of the cardiovascular system is thought to be a cause of the adverse effects of many of the prior art compounds on blood oxygen pressures, it is expected that the compounds of the present invention will be less likely to lead to a fall in blood oxygen pressure then compounds such as epinephrine or isoprenaline. The compounds of the present invention have the added advantage of improved longevity of action over all of the compounds described above. […] This improvement has been observed in a number of clinical trials.

Data set [9] deals with bronchial muscle and heart.
Text: as §1

Data set [10] relates to cardioaccelerating effect. Particulars: in vivo.
Text: as §1

Entries after “also recorded” stand apart in the source; their conditions may differ.

For orientation: LD50 means the dose expected to kill half of the subjects tested. Lower therefore signals greater toxicity. For the molecule `CC(C)(C)NCC(O)c1cc(O)cc(O)c1` (racemic) [terbutaline, 1-(3',5'-dihydroxyphenyl)-2-(t-butylamino)-ethanol], the “relaxation of trachea, activity relative to orciprenaline” value in data set [1] was “about two”. The “relaxation of trachea, potency relative to (-)-epinephrine” value in data set [1] is reported as “slightly less potent than (-)-epinephrine”. For the same molecule, the “bronchospasmolytic effect relative to orciprenaline” value in data set [2] is reported as “twice”. Besides, the “cardiac stimulation in relation to bronchodilator effect” value in [3] (both preparations in same bath) is reported as “bronchodilation was obtained without any effect on the heart muscle preparation”. Also, the “effect on auricle (tension)” value in data set [3] (0.375 μg/min where stated) is listed as “little observable effect on the auricle”. Besides, the “effect on trachea (relaxation)” value in data set [4] is reported as “nearly comparable to that of epinephrine infused at the same rate”. Moreover, the “effect on isolated heart relative to epinephrine” value in [5] (cardiac/cardioaccelerating effect, FIGS. 5, 6) is reported as “about one-fiftieth”. In addition, in data set [5] (injection, FIG. 5), the “effect on rate and force of isolated heart” value is “weak”. Also, the “maximum effect and duration of effect versus orciprenaline” value in data set [6] (5 mg terbutaline versus 20 mg orciprenaline, oral) is given as “superior to 20 mg of orciprenaline”. The circulatory effects entry in [6] (oral) is reported as “negligible circulatory effects”. The “time of maximal response (FEV1.0)” value in [6] (oral single dose) was 3 h. Besides, in data set [6] (oral, presumably), the duration of action is greater than 5 h. Further, in [6] (oral, terbutaline 5.0 mg, orciprenaline 20 mg, FIG. 9), the “increase of FEV1.0” value is listed as “clearcut increase of the spirometric values; also recorded: significantly greater than that of orciprenaline; also recorded: effective in relaxing bronchial obstruction in asthmatic patients”. In addition, the LD50 stood at 47 mg/kg in data set [7] (iv), 240 mg/kg in [7] (sc) and 3200 mg/kg in data set [7] (oral). Further, the arterial oxygen tension entry in data set [8] was “improved arteriel oxygen tension in asthmatic patients”. The “duration of effect versus orciprenaline” value in data set [9] was “longer than that of orciprenaline”. Besides, the “bronchodilator potency versus orciprenaline” value in [9] (in vitro and in vivo) is “more potent bronchodilator”. For the same molecule, in [10], the cardioaccelerating effect entry is listed as “weak cardioaccelerating effect”.
